What was measured:
[1] = Metabolic stability in pooled human liver microsomes; assay type: in vitro ADME; conditions: pH 7.4, pooled HLMs 1 mg/mL, NADPH, 1 µM compound, 37 °C
Description: Stock solutions of studied compounds were prepared at concentration of 100 µM in 1:1 acetonitrile/water mixture. Incubation mixes consisted 1 μM of a studied compound, 100 µM of NADPH in phosphate buffer and 1 mg/mL of pooled HLMs (Sigma-Aldrich, St. Louis, MO, USA) in potassium phosphate buffer (0.1 M, pH 7.4). Incubation was carried out in 96-well plates at 37 °C. Incubation mixtures (excluding compound solution) were subjected to 5 min preincubations, and started by addition of 10 µL of compound stock solution. After 0, 5, 10, 15, and 30 min, 25 µL samples of incubation reaction were added to the equal volume of ice-cold acetonitrile containing 1 µM of IS (buspirone hydrochloride). Control incubations were performed without NADPH to assess possible chemical instability. All samples were immediately centrifuged (10 min, 10,000 rpm) and the resulting supernatant was directly subjected to LC-MS analysis.
LC-MS analysis was performed on an Agilent 1260 system coupled to SingleQuad 6120 mass spectrometer (Agilent Technologies, Santa Clara, CA, USA). A Poroshell C18 EC120 column (3.0 × 100 mm^2, 2.7 μm, Agilent Technologies, Santa Clara, CA, USA) was used in reversed-phase mode with gradient elution starting with 90% of phase A (0.1% formic acid in deionised water) and 10% of phase B (0.1% formic acid in acetonitrile). […]

D2 receptors = target: T1, D2 receptors (Homo sapiens, UniProt P14416); test: D2 radioligand binding assay; conditions: [3H]-raclopride; HEK293 cells, human receptor
T1 construct: expressed in transfected cells
T1 sequence (P14416 whole entry): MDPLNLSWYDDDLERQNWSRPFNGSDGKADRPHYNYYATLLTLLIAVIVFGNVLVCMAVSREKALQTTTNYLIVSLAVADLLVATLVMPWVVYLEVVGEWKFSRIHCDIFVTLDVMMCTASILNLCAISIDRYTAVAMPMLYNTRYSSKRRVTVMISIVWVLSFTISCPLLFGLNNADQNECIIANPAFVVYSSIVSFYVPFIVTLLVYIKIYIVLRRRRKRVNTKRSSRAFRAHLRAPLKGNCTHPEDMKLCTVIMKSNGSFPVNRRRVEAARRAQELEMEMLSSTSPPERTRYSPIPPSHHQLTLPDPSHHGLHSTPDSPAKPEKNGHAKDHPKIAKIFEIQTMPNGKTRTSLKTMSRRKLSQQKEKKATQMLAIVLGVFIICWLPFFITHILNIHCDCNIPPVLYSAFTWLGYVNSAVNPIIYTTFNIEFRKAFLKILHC
Description: (§1) In vitro radioligand binding assays for 5-HT2A, 5-HT6, 5-HT7 and D2 receptors were carried out using methods published by Zajdel et al.. For the assays, HEK293 cell cultures stably expressing the investigated human receptors were used. Cell pellets were thawed and homogenized in 20 vol of assay buffer using an Ultra Turrax tissue homogenizer, then centrifuged twice at 35000 g for 20 min at 4 °C, with incubation for 15 min at 37 °C in between. The composition of the assay buffers was as follows: for 5-HT2A receptors—50 mM Tris-HCl, 0.1 mM EDTA, 4 mM MgCl2 and 0.1% ascorbate; for 5-HT6 receptors—50 mM Tris-HCl, 0.5 mM EDTA, 4 mM MgCl2; for 5-HT7 receptors—50 mM Tris-HCl, 4 mM MgCl2, 10 µM pargyline and 0.1% ascorbate; for D2 receptors—50 mM Tris-HCl, 1 mM EDTA, 4 mM MgCl2, 120 mM NaCl, 5 mM KCl, 1.5 mM CaCl2 and 0.1% ascorbate. All assays were incubated in total volume of […] in 96-well microtitre plates for 1 h at 37 °C, except for 5-HT2A receptors which were incubated at room temperature for 1.5 h. The process of equilibration was terminated by rapid filtration through Unifilter plates with a 96-well cell harvester, and radioactivity retained on the filters was quantified on a Microbeta plate reader (PerkinElmer, USA). For displacement studies, the assay samples contained as radioligands (PerkinElmer): 2 nM [^3H]-ketanserin (spec. act. 53.4 Ci/mmol) for 5-HT2A receptors; 2 nM [^3H]-LSD (spec. act. 83.6 Ci/mmol) for 5-HT6 receptors; 0.6 nM [^3H]-5-CT (spec. act. 39.2 Ci/mmol) for 5-HT7 receptors and [^3H]-raclopride (spec. act. 76.0 Ci/mmol) for D2 receptors. […] Each compound was tested in triplicate at 7–8 concentrations (10^-11-10^-4 M). The inhibition constants (Ki) were calculated from the Cheng–Prusoff equation [46]. Results were expressed as means of at least two separate experiments.

5-HT7 receptors = target: T2, 5-HT7 receptors (Homo sapiens, UniProt P34969); test: 5-HT7 radioligand binding assay; conditions: [3H]-5-CT; HEK293 cells, human receptor
T2 construct: expressed in transfected cells
T2 sequence (P34969 whole entry): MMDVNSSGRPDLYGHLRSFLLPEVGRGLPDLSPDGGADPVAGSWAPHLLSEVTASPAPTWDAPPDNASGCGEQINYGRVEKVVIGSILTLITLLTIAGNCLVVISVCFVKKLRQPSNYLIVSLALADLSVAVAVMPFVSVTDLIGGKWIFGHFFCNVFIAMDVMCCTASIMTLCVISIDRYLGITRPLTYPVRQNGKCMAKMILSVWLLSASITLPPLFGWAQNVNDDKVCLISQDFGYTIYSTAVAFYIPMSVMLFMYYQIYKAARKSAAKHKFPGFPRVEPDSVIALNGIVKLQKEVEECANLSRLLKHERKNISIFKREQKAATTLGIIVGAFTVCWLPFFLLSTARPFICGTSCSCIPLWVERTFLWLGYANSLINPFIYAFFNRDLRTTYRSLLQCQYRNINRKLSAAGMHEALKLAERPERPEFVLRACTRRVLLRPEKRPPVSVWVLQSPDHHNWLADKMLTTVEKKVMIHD
Description: as §1

human 5-HT1A receptor = target: T3, human 5-HT1A receptor (Homo sapiens, UniProt P08908); test: 5-HT1A radioligand binding assay; conditions: [3H]-8-OH-DPAT 1 nM; membranes from CHO-K1 cells with human 5-HT1A receptor
T3 construct: purchased PerkinElmer; host or cells: CHO-K1 cells, stably transfected
T3 sequence (P08908 1-422): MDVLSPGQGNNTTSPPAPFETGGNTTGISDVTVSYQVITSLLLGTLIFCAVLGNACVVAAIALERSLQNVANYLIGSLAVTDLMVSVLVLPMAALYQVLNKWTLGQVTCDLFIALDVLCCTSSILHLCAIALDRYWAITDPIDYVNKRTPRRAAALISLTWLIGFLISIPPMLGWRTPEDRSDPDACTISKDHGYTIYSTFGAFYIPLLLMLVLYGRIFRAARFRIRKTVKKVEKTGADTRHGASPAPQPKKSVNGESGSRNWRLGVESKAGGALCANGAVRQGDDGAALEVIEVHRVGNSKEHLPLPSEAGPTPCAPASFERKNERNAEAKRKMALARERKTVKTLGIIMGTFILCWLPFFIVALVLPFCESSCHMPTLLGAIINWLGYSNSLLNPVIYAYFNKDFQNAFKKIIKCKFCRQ
Description: Radioligand binding was performed using membranes from CHO-K1 cells stably transfected with the human 5-HT1A receptor (PerkinElmer, Fremont, CA, USA). All assays were carried out in duplicate. Then, 50 µL working solution of the tested compounds, 50 µL [^3H]-8-OH-DPAT (final concentration 1 nM) and 150 µL diluted membranes (20 µg protein per well) prepared in assay buffer (50 mM Tris, pH 7.4, 10 mM MgSO4, 0.5 mM EDTA, 0.1% ascorbic acid) were transferred to a polypropylene 96-well microplate using 96-wells pipetting station Rainin Liquidator (MettlerToledo, Columbus, OH, USA). […] The reaction was terminated by rapid filtration through GF/B filter mate, presoaked with 0.5% polyethyleneimine for 30 min. Ten rapid washes with 200 µL 50 mM Tris buffer (4 °C, pH 7.4) were performed using an automated harvester system—Harvester-96 MACH III FM (Tomtec, Hamden, CT, USA). […] Data were fitted to a one-site curve-fitting equation with Prism 6 (GraphPad Software, San Diego, CA, USA) and Ki values were estimated from the Cheng–Prusoff equation.

5-HT6 receptors = target: T4, 5-HT6 receptors (Homo sapiens, UniProt P50406); test: 5-HT6 radioligand binding assay; conditions: [3H]-LSD; HEK293 cells, human receptor
T4 construct: expressed in transfected cells
T4 sequence (P50406 whole entry): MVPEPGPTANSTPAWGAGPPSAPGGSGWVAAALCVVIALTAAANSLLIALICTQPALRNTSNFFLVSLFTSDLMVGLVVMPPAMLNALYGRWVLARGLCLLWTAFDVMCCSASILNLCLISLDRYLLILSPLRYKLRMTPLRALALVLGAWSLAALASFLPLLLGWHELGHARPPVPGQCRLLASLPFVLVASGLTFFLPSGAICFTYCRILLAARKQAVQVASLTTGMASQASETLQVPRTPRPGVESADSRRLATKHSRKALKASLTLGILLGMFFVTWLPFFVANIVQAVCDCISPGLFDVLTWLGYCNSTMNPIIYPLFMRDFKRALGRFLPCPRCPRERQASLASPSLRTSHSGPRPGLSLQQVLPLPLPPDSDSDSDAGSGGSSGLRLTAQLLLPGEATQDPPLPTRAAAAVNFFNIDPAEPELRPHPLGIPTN
Description: as §1

half-life at 1 µM [1] | Ki (D2 receptors) | Ki (5-HT7 receptors) | Ki (human 5-HT1A receptor) | Ki (5-HT6 receptors) | SMILES
3.61 min | 7 ± 2 nM | 62 ± 5 nM | 23 ± 1 nM | 376 ± 58 nM | O=c1c(-c2ccccc2)c2ccccn2c(=O)n1CCCCN1CCC(c2noc3cc(F)ccc23)CC1 [Compound 6a, 4-Phenyl-2-{4-[4-(6-fluoro-1,2-benzoxazol-3-yl)-1-piperidyl]butyl}-pyrido[1,2-c]pyrimidine-1,3-dione]
3.2 min | 9 ± 2 nM | 109 ± 14 nM | 11 ± 1.4 nM | 709 ± 135 nM | O=c1c(-c2ccccc2Cl)c2ccccn2c(=O)n1CCCCN1CCC(c2noc3cc(F)ccc23)CC1 [Compound 6d, 4-(2-Chlorophenyl)-2-{4-[4-(6-fluoro-1,2-benzoxazol)-1-piperidyl]butyl}-pyrido[1,2-c]pyrimidine-1,3-dione]
